A word on the melting point: it is the temperature, or range, at which the solid turns liquid. Regarding `Cn1c(=O)ccc2cc(COc3cccc(C4(C)CCOCC4)c3)ccc21`, the melting point fell in the range of 107 to 108 °C.
Compound `CC(N=c1[nH]c(-c2ccccc2)c(-c2ccnc(Nc3ccccc3)n2)s1)N(C)C` (stereo not given) showed a melting point of 196 to 197 °C.
In the case of `Cc1cc(-c2nnn(C)n2)cc(C)c1OCCCC(O)c1nccn1C` (stereo not given) it was 151 to 154 °C.
The figure for `COC1=CCC2=C(CCC3C2CCC2(C)C3CCC2N(C)CCCN(C)C)C1` (stereo not given) is 78 to 80 °C.
In the case of `O=c1cc(C(F)(F)F)n(-c2c([N+](=O)[O-])cc([N+](=O)[O-])cc2C(F)(F)F)c(=O)[nH]1` it was 219 to 220 °C.
As to `CCNc1nc(NCc2ccco2)nc(Nc2ccc(O)cc2)n1`, the melting point fell in the range of 76 to 78 °C.
The figure for `Cc1ccc(C(=O)C2=C(O)C(=O)N(c3ncc(S(=O)(=O)c4ccc([N+](=O)[O-])cc4)s3)C2c2ccc(C(=O)N(C)C)cc2)cc1` (stereo not given) is 205 °C.
The compound `CC1CCCCC1N(Cc1ccc(C(=O)NC(C)(C)C(=O)O)cc1)S(=O)(=O)c1ccc(Cl)cc1` (stereo not given) gave a melting point of 121 to 122 °C.
As for `CCOC(=O)Cc1csc2nc(C(=O)OC)cn12`, the melting point lay in the range of 152 to 154 °C.
In the case of `COC(=O)C(C#N)=Cc1cc(OC)c(OC)cc1[N+](=O)[O-]` it was 162 to 164 °C; in that of `COc1ccc(COC(=O)c2nc(-c3ccc(Cl)c(OC)c3F)cc(N)c2Cl)cc1`, 73 to 83 °C; in that of `COc1ccc(C2COc3cc(O)c(O)cc3C2)cc1OC` (stereo not given), 153 °C.
The figure for `COC(=O)c1cc(=NS(=O)(=O)c2ccccc2)c2ccccc2o1` is 144 to 146 °C.
In the case of `N#Cc1cccc2c(Cl)ccc([N+](=O)[O-])c12` it was 210 to 212 °C; in that of `Cc1ccc2c(n1)sc1c(Cl)nnnc12`, 188 to 189 °C; in that of `CCNc1nc(Cc2cc(OC)c(OC)c(OC)c2)nc2sc(C#N)c(C)c12`, 164 to 165 °C.
Turning to `O=C1c2ccccc2C(=O)N1Cc1cnccn1`, the melting point fell in the range of 141 to 143 °C.
Consider `CCOC(=O)c1cnc2c(C)cc(-c3ccc(C(F)(F)F)cc3)cn12`, for which the melting point is 128 °C.
Compound `Cc1cccc2c1nc(-c1ccc3ccccc3c1)n2Cc1c(F)cccc1F` displayed a melting point of 175 to 176 °C.
`CCC1c2ccc(F)n2-c2ccc(F)cc2N1S(=O)(=O)c1ccc(O)cc1` (stereo not given): the melting point is 169 to 171 °C.
The figure for `CC(C)(C)Sc1ccc(Cn2c(CC(C)(C)C(=O)O)c(SC(C)(C)C)c3cc(OCc4ccc5ccccc5n4)ccc32)cc1` is 172 to 173 °C; for `Cn1cc2c3c(c(Cl)cc2n1)CCC3=CC#N` it is 224 to 226 °C; for `CN(C)C(=Nc1ccccc1N1CCOCC1)N1CCOCC1` it is 126 to 128 °C.
In the case of `NC(=O)c1nnn(Cc2ccccc2F)c1N` it was 189 to 190 °C; in that of `CC(C)n1nc(-c2c(NCc3ccncc3)nc(N)nc2-c2ccccc2)ccc1=O`, 222 °C; in that of `COc1cc(OCCCN2CCC[C@H]2C)ccc1-c1ccc(=O)[nH]n1`, 182 to 186 °C.
In turn, `C/C(=C(\Br)C=O)c1ccc2c(c1)C(C)(C)CCC2(C)C` came in with a melting point of 115 to 117 °C.
The compound `NC(=O)CC1C=CC=CC1(F)F` (stereo not given) gave a melting point of 113 to 114 °C.
For `C[C@@H](n1cnc2cc(-c3ccc(Cl)cc3)sc2c1=O)[C@](O)(Cn1cncn1)c1ccc(F)cc1F`, the melting point was in the range of 158 to 160 °C.
With `CCOC(=O)CN1C(=O)[C@@H](N)[C@H](c2ccccc2)Sc2ccccc21`, the melting point was 176 to 178 °C.
In the case of `N#Cc1cc(-n2nnnc2C(F)(F)F)ccc1OC(F)(F)F` it was 65 to 67 °C.
`O=C1Nc2cccnc2C(=O)N2CCCC12` (stereo not given) gave a melting point of 249 to 250 °C.
Compound `CNC(=O)CN(CCN(CCN(CC(=O)O)CC(=O)NC)CC(=O)O)CC(=O)O` gave a melting point of 78 to 82 °C.
In the case of `C[C@@H](Nc1ncnc2ccncc12)c1ccccc1` it was 138 °C; in that of `O=C1c2ccccc2OCC1SC(=O)C(F)(F)F` (stereo not given), 75 to 79 °C.

The record behind these values is a melting point compilation (Tetko et al.; mined from patent text by program, amines drawn as free bases though some values may be those of a salt).
